Data: US20250228865A1, “COMPOUNDS FOR ENHANCING READ THROUGH OF GENES CONTAINING PREMATURE TERMINATION CODONS AND METHODS FOR MAKING AND USING THE SAME” (Sanofi US Services Inc., priority 2022, published 2025)

How the values were obtained:
[1] = test system: recombinant human CFTR carrying the premature stop codon (PTC) mutation G542X; assay: CFTR-PTC mutant translation readthrough, Nanoluc tagged CFTR luminescence (G542X cell line); format: cell-based; settings: in combination with G418, G542X cell line; for CFTR G542X ACTIVITY Fold 10 μM G-418: fold over 10 μM G-418; for EC50: 16HBE cells
Description: (§1) 16HBE human bronchial epithelial cells (stably over-expressing recombinant human CFTR carrying the premature stop codon (PTC) mutation G542X or R1162X along with a Nanoluc tag incorporated into the CFTR channel within extracellular loop 4 in G542X cell line or C-terminus end in the R1162X cell line were seeded at 0.01×10^6 cells/well and grown in Minimal Essential Medium (MEM) as monolayers in 384 well plates and incubated at 37° C. with 5% CO2. Media was changed every other day until day of experiment. Agents to be evaluated were made up in separate 384 well, polypropylene plates at a 2X the final desired test concentration. Test agent 10-point concentration response curves were constructed using the Labcyte Echo 555 acoustic dispenser. Test agents were typically tested at a max final test concentrations of 50 μM with sequential 2-fold lower concentrations below this in the absence or presence of a fixed 10 μM concentration of the aminoglycoside G418 made up in MEM growth media (reduced Serum Media+HEPES Buffer+2.4 g/L Sodium Bicarbonate+L-Glutamine containing CFTR corrector VX-809 (3 μM)). Treatment with 10 μM G418 alone produced approximately 10% of the response observed with a maximally effective concentration of G418 (typically 125-250 μM). Test agent effects in presence of 10 μM G418 were compared to control wells on the plate containing a maximally effective concentration of G418 (typically 125-250 μM) made up in the same media. 25 ul of test agents/control solutions were transferred from the compound plate to the cell plate, which already contained 25 ul/well of cell plating media, using an Integra Viaflo 384. Cell plates were incubated with the compounds for 48 hours, at which time they were processed using Nanoluc luminescence Kit (Promega Nano-Glo Live Cell Assay System) to measure CFTR-PTC mutant translation readthrough. Luminescence was measured as follows. Cell plates were removed from the incubator and allowed to equilibrate to room temperature for 20 minutes. Media was removed from all wells and the plates were blotted to remove excess remaining volume. Nano-Glo Live Cell Substrate was diluted 1:20 in the appropriate amount of Nano-Glo LCS Dilution Buffer to accommodate the number of cell plates being tested. The substrate/dilution buffer mix was then diluted 1:3 with MEM media to make the appropriate volume for the number of plates being tested. The substrate/dilution buffer/OptiMEM mix was added across the Nanoluc testing cell plates and the plates were read for luminescence signal immediately. Test agent effects on CFTR translation readthrough was determined by normalizing any observed increase in luminescence induced by 48 hours pretreatment with test compound to the magnitude of luminescence increase produced by pretreatment with a maximally effective concentration of the reference readthrough enhancing agent G418 (125-250 μM).

[2] = test system: recombinant human CFTR carrying the premature stop codon (PTC) mutation R1162X; assay: CFTR-PTC mutant translation readthrough, Nanoluc tagged CFTR luminescence (R1162X cell line); format: cell-based; settings: for CFTR R1162X ACTIVITY Fold 10 μM G-418: fold over 10 μM G-418, in combination with G418; for EC50: in combination with G418, 16HBE cells, read-out: CFTR R1162X ACTIVITY EC50
Description: as §1

| Compound | CFTR G542X ACTIVITY Fold 10 μM G-418 [1] | EC50 [1] [µM] | CFTR R1162X ACTIVITY Fold 10 μM G-418 [2] | EC50 [2] [µM] |
| --- | --- | --- | --- | --- |
| COc1cccc(Br)c1COc1ccc(N2CC(CO)OC2=O)cc1 (stereo not shown) | A′ (A′ = ≥10X) | > 10 | B′ (B′ = ≥5X to <10X) | > 10 |
| OC[C@H]1CN(c2ncc(OCc3c(Cl)cccc3C(F)(F)F)cn2)CCO1 | A′ (A′ = ≥10X) | < 1 | A′ (A′ = ≥10X) | < 1 |
| NCC1CN(c2ccc(OCc3c(Cl)cccc3Cl)cc2)C(=O)O1 (stereo not shown) [5-(aminomethyl)-3-[4-[(2,6-dichlorophenyl)methoxy]phenyl]oxazolidin-2-one] | B′ (B′ = ≥5X to <10X) | 1 to 10 | A′ (A′ = ≥10X) | > 10 |
| Clc1cccc(Cl)c1COc1cnc(N2CCC3(CCO3)C2)nc1 (stereo not shown) [7-[5-[(2,6-dichlorophenyl)methoxy]pyrimidin-2-yl]-1-oxa-7-azaspiro[3.4]octane] | A′ (A′ = ≥10X) | < 1 | A′ (A′ = ≥10X) | 1 to 10 |
| OCc1ccn(-c2ncc(OCc3c(Cl)cccc3OC(F)(F)F)cn2)n1 | A′ (A′ = ≥10X) | < 1 | B′ (B′ = ≥5X to <10X) | 1 to 10 |
| OCc1cn(-c2ccc(CCc3c(Cl)cccc3Cl)cn2)cn1 [[1-[5-[2-(2,6-dichlorophenyl)ethyl]-2-pyridyl]imidazol-4-yl]methanol] | B′ (B′ = ≥5X to <10X) | 1 to 10 | ′ | > 10 |
| Cc1cccc(C(F)(F)F)c1COc1cnc(N2CC(=O)N(C)C2=O)nc1 | A′ (A′ = ≥10X) | 1 to 10 | A′ (A′ = ≥10X) | 1 to 10 |
| Cc1cccc(C(F)(F)F)c1COc1cnc(N2CCNC(=O)C2)nc1 [4-[5-[[2-methyl-6-(trifluoromethyl)phenyl]methoxy]pyrimidin-2-yl]piperazin-2-one] | A′ (A′ = ≥10X) | < 1 | A′ (A′ = ≥10X) | < 1 |
| Cc1cccc(C(F)(F)F)c1COc1cnc(-n2ccc(CO)n2)nc1 | A′ (A′ = ≥10X) | < 1 | A′ (A′ = ≥10X) | < 1 |
| Cc1cccc(C(F)(F)F)c1COc1cnc(N2CCC[C@H](O)C2)nc1 | A′ (A′ = ≥10X) | < 1 | A′ (A′ = ≥10X) | < 1 |
| NCC1CN(c2ncc(OCc3c(Cl)cccc3Cl)cn2)CCO1 (stereo not shown) [[4-[5-[(2,6-dichlorophenyl)methoxy]pyrimidin-2-yl]morpholin-2-yl]methanamine] | A′ (A′ = ≥10X) | < 1 | A′ (A′ = ≥10X) | 1 to 10 |
| Cc1cccc(C(F)(F)F)c1COc1cnc(N2CCC(O)C(F)(F)C2)nc1 (stereo not shown) | C′ (C′ = <5X) | < 1 | A′ (A′ = ≥10X) | < 1 |
| OCc1nc(-c2ccc(OCc3c(Cl)cccc3Cl)cc2)co1 [[4-[4-[(2,6-dichlorophenyl)methoxy]phenyl]oxazol-2-yl]methanol] | A′ (A′ = ≥10X) | 1 to 10 | A′ (A′ = ≥10X) | 1 to 10 |
| COC(=O)C1CN(c2ncc(OCc3c(Cl)cccc3Cl)cn2)CC(=O)N1 (stereo not shown) | A′ (A′ = ≥10X) | > 10 | B′ (B′ = ≥5X to <10X) | > 10 |
| NC(=O)c1ccc(OCc2c(Cl)cccc2Cl)cn1 [5-[(2,6-dichlorophenyl)methoxy]pyridine-2-carboxamide] | A′ (A′ = ≥10X) | 1 to 10 | B′ (B′ = ≥5X to <10X) | 1 to 10 |
| NCc1cc(-c2ccc(OCc3c(Cl)cccc3Cl)cn2)no1 [Example 234, [3-[5-[(2,6-dichlorophenyl)methoxy]-2-pyridyl]isoxazol-5-yl]methanamine] | A′ (A′ = ≥10X) | < 1 | A′ (A′ = ≥10X) | 1 to 10 |
| O=C1OC(CO)CN1c1cnc(OCc2c(Cl)cccc2Cl)cn1 (stereo not shown) | B′ (B′ = ≥5X to <10X) | 1 to 10 | B′ (B′ = ≥5X to <10X) | > 10 |
| O=C(O)C1CCCN(c2ncc(OCc3c(Cl)cccc3C(F)(F)F)cn2)C1 (stereo not shown) [1-(5-{[2-chloro-6-(trifluoromethyl)phenyl]methoxy]pyrimidin-] |  | 1 to 10 |  | > 10 |
| FC(F)(F)c1cccc(Cl)c1COc1cnc(N2CCC3(CCCNC3)C2)nc1 (stereo not shown) | A′ (A′ = ≥10X) | > 10 | A′ (A′ = ≥10X) | 1 to 10 |
| NC(=O)N1CCCN(c2ncc(OCc3c(Cl)cccc3Cl)cn2)CC1 [4-[5-[(2,6-dichlorophenyl)methoxy]pyrimidin-2-yl]-1,4-diazepane-1-carboxamide] | A′ (A′ = ≥10X) | 1 to 10 | A′ (A′ = ≥10X) | 1 to 10 |
| CC(=O)NC[C@H]1CN(c2ncc(OCc3c(C)cccc3C(F)(F)F)cn2)CCO1 | A′ (A′ = ≥10X) | < 1 | A′ (A′ = ≥10X) | 1 to 10 |
| OCc1cn(-c2ncc(OCc3c(Cl)cccc3Cl)cn2)cn1 [[1-[5-[(2,6-dichlorophenyl)methoxy]pyrimidin-2-yl]imidazol-4-yl]methanol] | A′ (A′ = ≥10X) | < 1 | A′ (A′ = ≥10X) | 1 to 10 |
| Cc1ccc(C(F)(F)F)c(COc2ccc(-n3cc(CO)nn3)cc2)c1F | B′ (B′ = ≥5X to <10X) | 1 to 10 | B′ (B′ = ≥5X to <10X) | > 10 |
| O=C(O)C1CN(c2ncc(OCc3c(Cl)cccc3C(F)(F)F)cn2)CCO1 (stereo not shown) [4-(5-{[2-chloro-6-(trifluoromethyl)phenyl]methoxy}pyrimidin-] |  | 1 to 10 |  | > 10 |
| O=C1OCC2CN(c3ncc(OCc4c(Cl)cccc4Cl)cn3)CCN12 (stereo not shown) | A′ (A′ = ≥10X) | 1 to 10 | B′ (B′ = ≥5X to <10X) | 1 to 10 |
| CC(=O)N1CCN(c2ncc(OCc3c(Cl)cccc3Cl)cn2)CC1 [1-[4-[5-[(2,6-dichlorophenyl)methoxy]pyrimidin-2-yl]piperazin-1-yl]ethanone] | A′ (A′ = ≥10X) | 1 to 10 | A′ (A′ = ≥10X) | 1 to 10 |
